From ChEMBL document CHEMBL3045736, “Cobalt mediated ring contraction reaction of lapachol and initial antibacterial evaluation of naphthoquinones derived from lapachol” (2012)
≈ marks a conversion by molar mass, not a printed value.

Legend:
Format in all cases: functional
Escherichia coli = experiment: Antibacterial activity against Escherichia coli after 24 hr by p-iodonitrotetrazolium assay
Bacillus cereus = experiment: Antibacterial activity against Bacillus cereus after 24 hr by p-iodonitrotetrazolium assay
Staphylococcus aureus = experiment: Antibacterial activity against Staphylococcus aureus after 24 hr by p-iodonitrotetrazolium assay
[1] = tested on: Mycobacterium tuberculosis; experiment: Antimycobacterial activity against Mycobacterium tuberculosis by Bactec TB-460 assay

Compound	MIC (Escherichia coli)	MIC (Bacillus cereus)	MIC (Staphylococcus aureus)	MBC [1] [µM]	MIC [1] [µM]
CC(=O)OC=CC1=C(O)C(=O)c2ccccc2C1=O	> 78.1 µg/mL	> 78.1 µg/mL	> 78.1 µg/mL		
CC(C)(O[N+](=O)[O-])C1CC2=C(O1)C(=O)c1ccccc1C2=O (stereo not drawn)	> 78.1 µg/mL	> 78.1 µg/mL	272 µM	136 (≈ 41.3 µg/mL)	34 (≈ 10.3 µg/mL)
O=CCC1=C(O)C(=O)c2ccccc2C1=O	> 78.1 µg/mL	> 78.1 µg/mL	> 78.1 µg/mL	723 (≈ 156 µg/mL)	362 (≈ 78.2 µg/mL)
CC(C)=CCC1(O)C(=O)c2ccccc2C1=O	> 78.1 µg/mL	> 78.1 µg/mL	240 µM	240 (≈ 55.2 µg/mL)	120 (≈ 27.6 µg/mL)
GENTAMICIN	3.6 µM	3.6 µM	7.2 µM		
CC(C)=CCC1=C(O)C(=O)c2ccccc2C1=O [LAPACHOL]	> 78.1 µg/mL	> 78.1 µg/mL	> 78.1 µg/mL	646 (≈ 156 µg/mL)	161 (≈ 39.1 µg/mL)
CC1(C)CCC2=C(O1)c1ccccc1C(=O)C2=O [LAPACHONE]	161 µM	161 µM	161 µM	80.7 (≈ 19.6 µg/mL)	20.2 (≈ 4.89 µg/mL)
CC(=O)c1cc2c(o1)C(=O)c1ccccc1C2=O [NAPABUCASIN]	> 78.1 µg/mL	> 78.1 µg/mL	326 µM	163 (≈ 39.1 µg/mL)	40.7 (≈ 9.77 µg/mL)
C=C(C)c1cc2c(o1)C(=O)c1ccccc1C2=O	328 µM	> 78.1 µg/mL	328 µM	164 (≈ 39.1 µg/mL)	41 (≈ 9.77 µg/mL)
C=C(C)C1CC2=C(O1)C(=O)c1ccccc1C2=O (stereo not drawn) [DEHYDROISO-ALPHA-LAPACHONE]	> 78.1 µg/mL	> 78.1 µg/mL	326 µM	81.4 (≈ 19.6 µg/mL)	40.7 (≈ 9.77 µg/mL)
NNC(=O)c1ccncc1 [ISONIAZID]				1.75 (≈ 0.24 µg/mL)	0.88 (≈ 0.121 µg/mL)
